Results taken from PMC6938345, “Inhibition of complement activation, myeloperoxidase, NET formation and oxidant activity by PIC1 peptide variants” (PLoS ONE, 2019).
Where a SMILES comes first, the peptide text is derived from it. [ ]: non-standard residue; d: D form. Sar = CNCC(=O)O

Assays:
[1] = Peptide solubility in water
Method: (PA) (Table 1) were synthesized by New England Peptide (Gardner, MA) to >90% purity. Sarcosine variants and PEG were dissolved in water and the pH was adjusted with NaOH. PA was dissolved in DMSO and then brought up to the final concentration with water resulting in 30% DMSO and pH adjusted. Antibody sensitized sheep erythrocytes (EA), purified C1q and factor B-depleted human sera were purchased from Complement Technology (Tyler, TX). Purified myeloperoxidase was purchased from Lee BioSolutions (Maryland Heights, MO) and tetramethylbenzidine (TMB) and PicoGreen were purchased from Thermo Fisher (Waltham MA).
(PA), peptide derivatives were synthesized with sarcosine residues substituted at all 15 positions, included a peptide in which the vicinal cysteines at positions 9 and 10 (C9,C10) were replaced with a single sarcosine residue (Table 1).

[2] = Total Antioxidant Capacity (TAC) assay; details: for TAC assay, antioxidant activity: Avg of n = 3; for antioxidant capacity (in words): TAC assay
Method: The TAC (Total Antioxidant Capacity) Assay (Cell Biolabs, Inc, San Diego, CA) was used to measure the antioxidant capacity of the sarcosine variants based on the reduction of copper (II) to copper (I). The kit protocol was performed as recommended.
Antioxidant activity is measured in copper reducing equivalents (CRE). Peptides were tested over a range of concentrations from 0.03–0.25 mM then compared to the standard. Data are the means of n = 3 independent experiments + SEM.

[3] = biological target: T1, C1q (Homo sapiens, UniProt P02745+P02746+P02747); assay: C1q binding ELISA-type assay; details: C1q as capture substrate
T1 construct: purchased Complement Technology (Tyler, TX)
T1 sequence (P02745 23-245): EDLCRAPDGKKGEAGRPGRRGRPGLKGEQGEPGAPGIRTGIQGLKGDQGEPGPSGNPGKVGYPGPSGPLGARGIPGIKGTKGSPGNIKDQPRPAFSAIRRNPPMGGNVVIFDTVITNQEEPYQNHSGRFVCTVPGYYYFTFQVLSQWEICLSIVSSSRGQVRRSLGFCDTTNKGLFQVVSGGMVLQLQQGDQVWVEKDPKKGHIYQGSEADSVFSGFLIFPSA
T1 sequence (P02746 28-253): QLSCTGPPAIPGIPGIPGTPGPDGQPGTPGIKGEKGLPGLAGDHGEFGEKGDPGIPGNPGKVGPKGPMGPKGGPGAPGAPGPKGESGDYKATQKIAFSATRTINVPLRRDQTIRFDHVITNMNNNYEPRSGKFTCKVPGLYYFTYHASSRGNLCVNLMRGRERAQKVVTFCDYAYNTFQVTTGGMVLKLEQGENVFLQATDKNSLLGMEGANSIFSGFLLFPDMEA
T1 sequence (P02747 29-245): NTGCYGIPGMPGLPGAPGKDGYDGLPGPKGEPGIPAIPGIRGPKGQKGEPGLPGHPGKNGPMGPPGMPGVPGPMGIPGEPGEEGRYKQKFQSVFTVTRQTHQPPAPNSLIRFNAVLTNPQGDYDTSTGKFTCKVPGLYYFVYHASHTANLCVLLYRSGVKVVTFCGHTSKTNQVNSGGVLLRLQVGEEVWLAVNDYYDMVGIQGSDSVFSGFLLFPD
Method: An Immunlon-2 HB ELISA plate was coated with 1 μg/ml C1q or MPO in bicarbonate buffer overnight at 4 °C. The plates were washed with PBST (phosphate buffered saline + 0.1% Tween) and then blocked with 1% gelatin/PBS for 2 hours at room temperature. After washing, the plates were incubated with PA or sarcosine variant peptides starting at 2.5 mg/ml and then serially diluted in 1% gelatin/PBS for 1 hour at room temperature. After washing, the plates were probed with rabbit anti-PA (developed with Cocalico Biologicals, Reamstown, PA) at 1:1000 in 1% gelatin/PBS for 1 hour, room temperature, followed by a goat anti-rabbit HRP (Sigma Aldrich, St Louis, MO) at 1:1,000 in 1% gelatin/PBS for 1 hour at room temperature with a washing step in between. Wells were developed using TMB substrate solution, stopped using 1 N H2SO4, and read at 450 nm in a plate reader.
We then tested peptide variant binding to C1q in an ELISA-type assay in which the C1q is used as the capture substrate. Binding curves for each peptide is shown in Fig 1C, from which half-maximal binding concentrations were calculated (Fig 1D). […] Higher concentrations of DMSO interfere with the detecting reagents resulting in a partial binding curve.

[4] = tested on: purified human neutrophils; assay: NETosis assay, free DNA by PicoGreen; type: cell-based; details: for PICO green - NETs, free DNA release: Average of n = 3, peptide 2 mM
Method: NETosis assays with immune complexes were performed as previously described. Briefly, normal human serum was stimulated with ovalbumin-antiovalbumin immune complexes in GVBS^++ for 30 minutes at 37 °C. This mixture along with 0.05% H2O2 was then added to purified human neutrophils resuspended in RPMI with or without sarcosine variants (2 mM), allowing NETosis to occur. Quantitation of free DNA released from the neutrophils was performed using PicoGreen. Slides were stained with DAPI (Southern Biotech, Birmingham, AL) and the following antibodies, mouse anti-elastase (Invitrogen, Carlsbad, CA) was used with the secondary goat anti-mouse Alexa Fluor 568 (Novus Biologicals, Centennial, CO) and rabbit anti-histone H3 (Abcam, Cambridge MA) with goat anti-rabbit Alexa Fluor 488 (Novus Biologicals) to visualize formation of NETs which were imaged with fluorescence microscopy with an Olympus BX53 microscope.
In this assay purified human neutrophils are stimulated with normal human serum activated with ovalbumin-antiovalbumin immune complexes and hydrogen peroxide. Free DNA expressed from the neutrophils is then measured in a PicoGreen assay.
Fig 5 Sarcosine variant inhibition of NET formation. Fluorescence microscopy images of NET formation after neutrophil stimulation with immune complexes (IC) and hydrogen peroxide (H2O2) compared with neutrophil only control. Variant I8 inhibition of NET formation is shown in the third row. Histones are probed with anti-histone antibody (αhistone), neutrophil elastase is probed with anti-neutrophil elastase (αNE) and DNA is stained with DAPI. Representative images are shown. […] Purified human neutrophils were stimulated with 2% normal human sera pre-incubated with ovalbumin-antiovalbumin immune complexes, and 0.05% H2O2. Sarcosine peptides and PIC1 were added to the sera to a final concentration of 2 mM. Data are the means of n = 3 independent experiments + SEM.

[5] = tested on: antibody-initiated complement activation (type O sera + type AB red blood cells); assay: ABO incompatibility hemolytic assay (CH50-type, ex vivo); type: cell-based, human; details: peptides 1.8 mM; for ABO hemolysis: Avg of n = 4, concentration basis of PIC1 not stated
Method: For hemolytic complement assays, human red blood cells (RBCs) from type AB donors were purified, washed and standardized to 1 × 10^9 cells/ml, as previously described. Human sera from type O donors at a 20% final concentration was combined with 1 mM PIC1 or sarcosine variant peptides and the volume was brought up to 0.15 ml with GVBS^++ and 0.5 ml RBCs. For factor B-depleted sera hemolytic assays, a final of 0.005% factor B depleted sera was incubated with 1 mM PIC1 or sarcosine variant peptides with 0.1 ml antibody-sensitized sheep red blood cells (EA) in a final volume of 0.75 ml GVBS^++. The samples were incubated for 1 hour at 37 °C and then 1.0 ml of GVBS^-—was added to the factor B-depleted samples to stop the reaction. The samples were spun at 3,000 rpm for 5 minutes and the supernatant was collected and read at 412 nm. Values are represented as a percent of the positive control, which consists of human O sera and AB red blood cells in GVBS^++ buffer.
In order to evaluate the extent to which the peptide variants inhibit antibody-initiated complement activation, we tested them in two hemolytic assays including an ABO incompatibility ex vivo assay (Fig 1A) and a classical pathway CH50-type assay in factor B-depleted sera (Fig 1B). In the ABO incompatibility hemolytic assay, purified erythrocytes from a ‘type AB+’ donor are incubated with sera from a ‘type O’ subject containing anti-A and anti-B antibodies; peptides were tested at 1.8 mM. […] We then performed a CH50-type hemolytic assay, with antibody-sensitized sheep erythrocytes, isolating the classical pathway by utilizing factor B-depleted sera; peptides were tested at 0.4 mM.
Fig 1 Sarcosine variant inhibition of complement activation in hemolytic assays and C1q binding. A) Inhibition of ABO incompatibility hemolysis in a CH50-type assay. Peptides are at a final concentration of 1.8 mM. […] Data are the means of n = 4 independent experiments + SEM. B) Inhibition of classical complement pathway-mediated hemolysis in factor B-depleted sera in a CH50-type assay. Peptides are at a final concentration of 0.4 mM. Data are the means of n = 4 independent experiments + SEM. C) Binding of increasing concentrations of sarcosine variants to purified C1q in an ELISA-type assay. Data are the means of n = 3 independent experiments ± SEM. D) Half-maximal binding concentrations were calculated for each peptide’s binding curve.

Compound: CC[C@H](C)[C@H](N)C(=O)N[C@@H](C)C(=O)N[C@@H](CC(C)C)C(=O)N[C@H](C(=O)N[C@@H](CC(C)C)C(=O)N[C@@H](CCC(=O)O)C(=O)N1CCC[C@H]1C(=O)N[C@H](C(=O)N[C@@H](CS)C(=O)N[C@@H](CS)C(=O)N[C@@H](CCC(N)=O)C(=O)N[C@@H](CCC(=O)O)C(=O)N[C@@H](CCCNC(=N)N)C(=O)N[C@@H](C)C(=O)N[C@@H](C)C(=O)O)[C@@H](C)CC)[C@@H](C)CC [PA]
- solubility in water (in words) [1]: poor aqueous solubility
- TAC assay, antioxidant activity [2]: 1289.18 copper reducing equivalents (CRE)
- binding to C1q (in words) [3]: superior binding to C1q

Compound: CC[C@H](C)[C@H](N)C(=O)N(C)CC(=O)N[C@@H](CC(C)C)C(=O)N[C@H](C(=O)N[C@@H](CC(C)C)C(=O)N[C@@H](CCC(=O)O)C(=O)N1CCC[C@H]1C(=O)N[C@H](C(=O)N[C@@H](CS)C(=O)N[C@@H](CS)C(=O)N[C@@H](CCC(N)=O)C(=O)N[C@@H](CCC(=O)O)C(=O)N[C@@H](CCCNC(=N)N)C(=O)N[C@@H](C)C(=O)N[C@@H](C)C(=O)O)[C@@H](C)CC)[C@@H](C)CC [A2]
- solubility in water (in words) [1]: soluble in water
- PICO green - NETs, free DNA release [4]: 44
- TAC assay, antioxidant activity [2]: 1071.61 copper reducing equivalents (CRE)
- ABO hemolysis [5]: 18.50 % of Control
- inhibition of ABO incompatible hemolysis (in words) [5]: to a greater extent than did the PA-dPEG24

Compound: CC[C@H](C)[C@H](N)C(=O)N[C@@H](C)C(=O)N[C@@H](CC(C)C)C(=O)N[C@H](C(=O)N(C)CC(=O)N[C@@H](CCC(=O)O)C(=O)N1CCC[C@H]1C(=O)N[C@H](C(=O)N[C@@H](CS)C(=O)N[C@@H](CS)C(=O)N[C@@H](CCC(N)=O)C(=O)N[C@@H](CCC(=O)O)C(=O)N[C@@H](CCCNC(=N)N)C(=O)N[C@@H](C)C(=O)N[C@@H](C)C(=O)O)[C@@H](C)CC)[C@@H](C)CC [L5]
- solubility in water (in words) [1]: soluble in water
- PICO green - NETs, free DNA release [4]: 32
- TAC assay, antioxidant activity [2]: 882.23 copper reducing equivalents (CRE)
- ABO hemolysis [5]: 33.50 % of Control

Compound: CC[C@H](C)[C@H](N)C(=O)N[C@@H](C)C(=O)N(C)CC(=O)N[C@H](C(=O)N[C@@H](CC(C)C)C(=O)N[C@@H](CCC(=O)O)C(=O)N1CCC[C@H]1C(=O)N[C@H](C(=O)N[C@@H](CS)C(=O)N[C@@H](CS)C(=O)N[C@@H](CCC(N)=O)C(=O)N[C@@H](CCC(=O)O)C(=O)N[C@@H](CCCNC(=N)N)C(=O)N[C@@H](C)C(=O)N[C@@H](C)C(=O)O)[C@@H](C)CC)[C@@H](C)CC [L3]
- solubility in water (in words) [1]: soluble in water
- PICO green - NETs, free DNA release [4]: 29
- TAC assay, antioxidant activity [2]: 1336.63 copper reducing equivalents (CRE)
- antioxidant capacity (in words) [2]: approaching that of PA-dPEG24
- ABO hemolysis [5]: 24.75 % of Control

Compound: CC[C@H](C)[C@H](N)C(=O)N[C@@H](C)C(=O)N[C@@H](CC(C)C)C(=O)N[C@H](C(=O)N[C@@H](CC(C)C)C(=O)N[C@@H](CCC(=O)O)C(=O)N1CCC[C@H]1C(=O)N[C@H](C(=O)N(C)CC(=O)N[C@@H](CCC(N)=O)C(=O)N[C@@H](CCC(=O)O)C(=O)N[C@@H](CCCNC(=N)N)C(=O)N[C@@H](C)C(=O)N[C@@H](C)C(=O)O)[C@@H](C)CC)[C@@H](C)CC [C9,10] (H-IALILEPI[Sar]QERAA-OH)
- solubility in water (in words) [1]: soluble in water

Compound: CC[C@H](C)[C@H](N)C(=O)N[C@@H](C)C(=O)N[C@@H](CC(C)C)C(=O)N(C)CC(=O)N[C@@H](CC(C)C)C(=O)N[C@@H](CCC(=O)O)C(=O)N1CCC[C@H]1C(=O)N[C@H](C(=O)N[C@@H](CS)C(=O)N[C@@H](CS)C(=O)N[C@@H](CCC(N)=O)C(=O)N[C@@H](CCC(=O)O)C(=O)N[C@@H](CCCNC(=N)N)C(=O)N[C@@H](C)C(=O)N[C@@H](C)C(=O)O)[C@@H](C)CC [I4]
- solubility in water (in words) [1]: soluble in water
- PICO green - NETs, free DNA release [4]: 68
- inhibition of NETosis (in words) ([4]; peptides 2 mM, immune complexes + H2O2, PicoGreen free DNA): reduced ability to inhibit NETosis
- TAC assay, antioxidant activity [2]: 1518.02 copper reducing equivalents (CRE)
- antioxidant capacity (in words) [2]: approaching that of PA-dPEG24
- ABO hemolysis [5]: 18.25 % of Control
- inhibition of ABO incompatible hemolysis (in words) [5]: to a greater extent than did the PA-dPEG24
